Test results: article PMC9977316, “The kidney drug transporter OAT1 regulates gut microbiome–dependent host metabolism” (JCI Insight, 2023)
Entries after “also recorded” stand apart in the source; their conditions may differ. Structures can show the parent of a compound that is named as a salt.

Legend:
OAT1 [1] = molecular target: T1, OAT1 (Mus musculus, UniProt Q8VC69); experiment: Serum metabolomics, effect of genotype (Oat1-KO versus WT), 2-way ANOVA; assay type: in vivo; details: for effect of genotype on serum level: statistical analysis of the serum metabolome; for interaction between genotype and treatment on serum level: 2-way ANOVA, loss of Oat1 x microbiome depletion
T1 construct: from tissue; host or cells: living mice (kidney proximal tubule); Oat1-KO versus WT
T1 sequence (Q8VC69 1-545): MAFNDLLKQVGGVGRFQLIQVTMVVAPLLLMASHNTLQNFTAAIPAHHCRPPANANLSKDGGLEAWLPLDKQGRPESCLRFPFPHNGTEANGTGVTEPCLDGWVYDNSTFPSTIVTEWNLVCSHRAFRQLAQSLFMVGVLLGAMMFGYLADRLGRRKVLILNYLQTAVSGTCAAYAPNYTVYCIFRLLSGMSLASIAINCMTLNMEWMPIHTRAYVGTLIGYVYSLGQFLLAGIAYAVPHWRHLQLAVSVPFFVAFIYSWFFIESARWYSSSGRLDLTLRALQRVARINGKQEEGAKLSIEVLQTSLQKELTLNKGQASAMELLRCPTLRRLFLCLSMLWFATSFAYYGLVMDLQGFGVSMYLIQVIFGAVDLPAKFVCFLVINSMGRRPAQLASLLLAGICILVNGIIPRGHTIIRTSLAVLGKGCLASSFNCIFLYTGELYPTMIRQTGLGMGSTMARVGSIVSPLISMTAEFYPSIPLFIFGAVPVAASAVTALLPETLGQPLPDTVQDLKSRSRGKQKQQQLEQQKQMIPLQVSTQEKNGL
Description: Adult male KO and WT mice were housed in a 12-hour light-dark cycle and allowed ad libitum access to food and water. Oat1-KO mice were generated and maintained as previously described ([49]). Feces were collected from mice weekly in sterile 2 mL centrifuge tubes, flash frozen, and stored at –80°C. Animals were sacrificed by CO2 inhalation, and blood samples were extracted from mice by cardiac puncture. Serum was extracted, and samples were flash frozen and stored at –80°C until further analysis.
Serum samples were shipped on dry ice to Metabolon Inc. for preparation and metabolomics. Per Metabolon Inc., proteins were removed from the serum and 5 fractions were generated for different mass spectrometry methods. […] Peaks were identified and associated with defined compounds based on retention time, mass/charge ratio, and MS/MS spectral data. Quantification of peaks was performed using AUC.
Scaled intensity for each metabolite was normalized to volume, and missing values were imputed with the lowest value for the compound. For all fold-change calculations, scaled intensities were averaged and compared with each other. Statistical comparisons were performed using the Python module, statsmodels (https://www.statsmodels.org/stable/index.html) and were made between groups by 2-way ANOVA following log transformation and FDR correction, with P < 0.05 being considered significant. Enrichment for each superpathway and subpathway was calculated using the number of total metabolites measured and the number of metabolites in each respective superpathway and subpathway, as previously described ([16]).

OAT1 [2] = details: cited from earlier work; for Decreased in urine of probenecid-treated humans / Elevated in plasma of probenecid-treated humans: before vs 5 hours after oral probenecid
OAT1 [3] = molecular target: T2, OAT1 (Homo sapiens, UniProt Q4U2R8); experiment: In vitro OAT1 transport assay (inhibition of 6-carboxyfluorescein uptake); assay type: cell-based; parameters: host or cells: HEK (HEK293) cells stably overexpressing human OAT1; details: for In vitro cell–based transport assay: this work
T2 sequence (Q4U2R8 1-563): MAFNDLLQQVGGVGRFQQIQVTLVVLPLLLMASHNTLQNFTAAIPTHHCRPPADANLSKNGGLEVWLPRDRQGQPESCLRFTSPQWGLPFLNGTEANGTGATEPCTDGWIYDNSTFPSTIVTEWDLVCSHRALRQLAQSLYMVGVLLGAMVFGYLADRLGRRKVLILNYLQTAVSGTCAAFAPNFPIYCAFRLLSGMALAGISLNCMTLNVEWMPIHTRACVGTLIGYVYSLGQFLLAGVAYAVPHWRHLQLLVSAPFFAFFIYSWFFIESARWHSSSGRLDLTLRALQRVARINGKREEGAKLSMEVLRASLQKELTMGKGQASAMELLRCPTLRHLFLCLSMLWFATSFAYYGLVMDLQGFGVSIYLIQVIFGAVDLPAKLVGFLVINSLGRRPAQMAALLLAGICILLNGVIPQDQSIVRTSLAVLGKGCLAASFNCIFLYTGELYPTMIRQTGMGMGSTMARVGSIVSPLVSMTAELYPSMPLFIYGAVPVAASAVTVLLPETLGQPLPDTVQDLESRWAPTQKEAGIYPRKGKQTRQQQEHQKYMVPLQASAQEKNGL
Description: Human embryonic kidney (HEK) cells stably overexpressing human OAT1 (SOLVO Biotechnology) were used for in vitro inhibition assays. […] Prior to functional assays, cells were plated in 96-well plates and grown for 24 hours or until confluent in media without blasticidin. Metabolites were added at either 1 mM or 2 mM, and serial dilution was performed down all columns. A fixed concentration of 10 μM 6-carboxyfluorescein (6-CF) was introduced to each well for 10 minutes. Cells were rinsed 3 times in ice-cold PBS, and the fluorescence was measured using a fluorescence plate reader. IC50 values were calculated using GraphPad Prism 9. Controls were carried out using probenecid, an established inhibitor of OAT1 function.

[4] = direction of serum change by loss of Oat1 and by microbiome depletion

| Compound | Status (OAT1 [1]; [4]) | Decreased in urine of probenecid-treated humans (OAT1 [2]) | further results |
| --- | --- | --- | --- |
| O=C(O)c1c(O)cccc1O [2,6-dihydroxybenzoic acid] | Group 2 | ✓ | Elevated in plasma of probenecid-treated humans (OAT1 [2]): ✓ |
| O=S(=O)(O)Oc1ccc(O)cc1 [hydroquinone sulfate] | Group 2 |  | Elevated in plasma of probenecid-treated humans (OAT1 [2]): ✓ |
| CCc1ccc(OS(=O)(=O)O)cc1 [4-ethylphenyl sulfate] | Group 2 | ✓ | urine level in probenecid treated humans (OAT1 [2]): significantly decreased in the urine |
| O=C(O)Cc1cccc2cc[nH]c12 [1H-indole-7-acetic acid] | Group 2 |  |  |
| O=S(=O)(O)Oc1ccccc1O [catechol sulfate] | Group 2 | ✓ |  |
| O=C(O)CCc1ccc(O)cc1 [3-(4-hydroxyphenyl)propionate] | Group 2 |  |  |
| COc1cc(CC(=O)O)ccc1OS(=O)(=O)O [homovanillate sulfate] | Group 2 | ✓ |  |
| COc1ccc(OS(=O)(=O)O)cc1 [4-methoxyphenol sulfate] | Group 2 | ✓ | Elevated in plasma of probenecid-treated humans (OAT1 [2]): ✓; plasma level in probenecid treated humans (OAT1 [2]): elevated in the plasma; urine level in probenecid treated humans (OAT1 [2]): decreased in the urine |
| O=C(O)/C=C/c1ccc(O)cc1 [4-hydroxycinnamate] |  |  | effect of genotype on serum level (OAT1 [1]): not impacted by either variable; IC50 (OAT1 [3]): 13.3 µM; In vitro cell–based transport assay (OAT1 [3]): × (this work) |
| 3-methoxycatechol sulfate (2) | Group 2 | ✓ |  |
| docosahexaenoylcarnitine (C22:6)* |  |  | interaction between genotype and treatment on serum level (OAT1 [1]): impacted by the interaction between the variables |
| O=C(O)CCc1c[nH]c2ccccc12 [indolepropionate] |  |  | IC50 (OAT1 [3]): 39.2 µM; In vitro cell–based transport assay (OAT1 [3]): × (this work) |
| C=CCc1ccc(OS(=O)(=O)O)cc1 [4-allylphenol sulfate] | Group 2 | ✓ |  |
| CC(C)C(O)(CC(=O)O)C(=O)O (centres unmarked) [2-isopropylmalate] | Group 4 |  | Elevated in plasma of probenecid-treated humans (OAT1 [2]): ✓ |
| O=S(=O)(O)Oc1c[nH]c2ccccc12 [3-indoxyl sulfate] |  | ✓ | Elevated in plasma of probenecid-treated humans (OAT1 [2]): ✓; plasma level in probenecid treated humans (OAT1 [2]): significantly elevated in the plasma |
| O=C(O)Cc1c[nH]c2ccc(O)cc12 [5-Hydroxyindoleacetate] |  |  | effect of genotype on serum level (OAT1 [1]): not impacted by either variable |
| Cn1cncc1C[C@H](N)C(=O)O [3-methylhistidine] | Group 2 |  |  |
| O=C(O)Cc1ccccc1O [2-hydroxyphenylacetate] |  |  | effect of genotype on serum level (OAT1 [1]): affected by genotype; IC50 (OAT1 [3]): 39.2 µM; In vitro cell–based transport assay (OAT1 [3]): × (this work) |
| O=C(O)CCCC(=O)C(=O)O [2-oxoadipate] | Group 4 | ✓ |  |
| O=C(O)CCc1ccccc1.O=C(O)CCc1ccccc1 [3-phenylpropionate (hydrocinnamate)] | Group 4 |  |  |
| CC(CCC[C@@H](C)[C@H]1CC[C@H]2[C@@H]3[C@H](O)CC4=CC(=O)CC[C@]4(C)[C@H]3CC[C@]12C)C(=O)O (some centres unmarked) [7-HOCA] | Group 3 |  |  |
| Cc1ccc(OS(=O)(=O)O)c(N)c1 [2-amino-p-cresol sulfate] | Group 2 |  | interaction between genotype and treatment on serum level (OAT1 [1]): impacted by the interaction between the variables |
| Cn1cncc1CC(O)C(=O)O (centres unmarked) [1-methyl-5-imidazolelactate] | Group 1 |  |  |
| O=C(O)/C=C/c1ccccc1 [cinnamate] |  |  | Status (OAT1 [1]; mouse, in vivo): Group 4 |
| OC[C@H]1OC[C@H](O)[C@@H](O)[C@@H]1O [1,5-anhydroglucitol (1,5-AG)] | Group 1 |  |  |

The next lines start with results.

| Status (OAT1 [1]; [4]) | Compound | Decreased in urine of probenecid-treated humans (OAT1 [2]) | further results |
| --- | --- | --- | --- |
| Group 3 | CC(=O)N[C@@H](CCCCNC(N)=O)C(=O)O [N-acetylhomocitrulline] | ✓ |  |
| Group 3 | CC(=O)NCCCC[C@H](NC(C)=O)C(=O)O [N2,N6-diacetyllysine] | ✓ |  |
| Group 4 | CN1CCC[C@H]1C(=O)O [N-methylproline] |  |  |
| Group 2 | O=C(O)CNC(=O)Cc1ccccc1 [phenylacetylglycine] |  | Elevated in plasma of probenecid-treated humans (OAT1 [2]): ✓ |
| Group 1 | C[C@@H](C(=O)O)N(C)C [N,N-dimethylalanine] |  |  |
| Group 4 | CC(=O)N[C@@H](CO)C(=O)O [N-acetylserine] |  |  |
| Group 2 | Cc1ccc(OS(=O)(=O)O)cc1 [p-cresol sulfate] | ✓ | Elevated in plasma of probenecid-treated humans (OAT1 [2]): ✓; plasma level in probenecid treated humans (OAT1 [2]): significantly elevated in the plasma |
| Group 2 | C[N+](C)(C)CCCCC(=O)[O-] [N,N,N-trimethyl-5-aminovalerate] |  |  |
| Group 1 | CS(=O)(=O)CC[C@H](N)C(=O)O [methionine sulfone] | ✓ |  |
| Group 3 | [H]/N=C(/N)NCC(=O)O [guanidinoacetate] |  |  |
| Group 2 | O=C1Cc2ccccc2N1 [indolin-2-one] | ✓ | Elevated in plasma of probenecid-treated humans (OAT1 [2]): ✓ |
| Group 2 | C[C@H](CCC(=O)O)[C@H]1CC[C@H]2[C@@H]3CC[C@@H]4C[C@H](O)CC[C@]4(C)[C@H]3C[C@H](O)[C@]12C [deoxycholate] |  | interaction between genotype and treatment on serum level (OAT1 [1]): impacted by the interaction between the variables; also recorded: affected by genotype-treatment interaction; IC50 (OAT1 [3]): 19.2 µM; In vitro cell–based transport assay (OAT1 [3]): × (this work) |
| Group 1 | O=C1O[C@H]([C@@H](O)CO)C(OS(=O)(=O)O)=C1O [ascorbic acid 3-sulfate*] |  |  |
| Group 3 | CC(=O)N[C@@H](CCCCN(C)C)C(=O)O [N2-acetyl,N6,N6-dimethyllysine] | ✓ |  |
| Group 1 | O=C(O)CCC(=O)NCCS(=O)(=O)O [succinoyltaurine] | ✓ |  |
